Laboratory results reported in US20260306640A1, “TECHNOLOGIES TARGETING CELL STATES” (Auron Therapeutics, Inc., priority 2023, published 2026).

Legend:
NCI-H1876 cells = assay: Cell growth inhibition, SCLC cell line NCI-H1876 (cell count, day 10); assay type: cell-based; settings: 240 h; NCI-H1876, day 10, cell count
Source text: Among other things, provided technologies are useful for treating various diseases, disorders, or conditions. For example, in some embodiments, provided technologies are useful for treating cancer as confirmed in the present Example. […] In some embodiments, provided technologies can inhibit cell proliferation. In some embodiments, the present disclosure provides technologies for assessing various technologies, e.g., compounds, compositions, or methods. Among other things, the present Example provides technologies, e.g., cell growth inhibition assay, for assessing various technologies. […] In some embodiments, the following cell growth inhibition methods are utilized to assess provided technologies.
SCLC: SCLC cell lines NCI-H1048 and NCI-H1876 were cultured in DMEM F12 media with 5% FBS, 1% Penicillin/Streptomycin and HITES supplement (Hydrocortisone, Insulin, Transferrin, Estradiol and Sodium Selenite). NCI-H1048 cells were plated at 10,000 cells/well of a 24-well plate and NCI-H1876 cells were plated at 20,000 cells/well of a 96-well plate. Compound and media were replenished every two days out to day 11 and 10 respectively. Cells were then trypsinized and counted using either hemocytometer or an automated Countess cell counter.

KAT2B [1] = target: T1, KAT2B (Homo sapiens, UniProt Q92831); assay: KAT2B degradation, Western Blot, MOLM-13 cells; assay type: cell-based; set-up: degrader, Western blot
Procedure: MOLM-13 cells were maintained at 37° C. in 5% CO2 and 90% humidity in RPMI 1640 supplemented with 20% fetal bovine serum (FBS) and 1× penicillin/streptomycin. Cells were plated in full media at 1-2 million cells/2 mL in a 6-well tissue culture treated plate with or without compounds for 24 h at 37° C. in 5% CO2.
MOLM-13 cells or NCI-H1048 cells were washed with PBS, then lysed with RIPA buffer containing 1×protease and phosphatase inhibitors (SantaCruz Biotechnologies Cat #sc-24948A). Protein was isolated by centrifugation at 12,000×g for 10 minutes at 4° C. and supernatant was collected. Protein was quantified via Bradford assay. Samples were diluted to 4 μg lysate in 16 μL RIPA buffer and then 4 μL of Jess Sample Buffer. Samples were heated at 95° C. for 5 minutes. Samples were loaded onto 12-230 kDa Jess™ Separation Module, 8×25 capillary cartridges (SM-W004, Biotechne). Antibodies loaded were: Primary antibody for KAT2A (GCN5L2 (C26A10) Rabbit mAb (3305, CST)) and for KAT2B (PCAF (C14G9)) Rabbit mAb (3378, CST) at 1:1000 and Anti-Rabbit Detection Module for Jess™ (Cat No #DM-001, Biotechne). Signal was detected by chemiluminescence.
DC50 values were determined from percent reduction of protein as compared to the DMSO control.

histone acetylation [2] = assay: Western blot of histone acetylation in NCI-H1048 tumors, 168 hours post last dose; assay type: in vivo; settings: FIG. 1 (F)
Procedure: (§1) FIG. 1. Provided compounds can provide various activities including inhibiting tumor growth in vivo. (A): Provided compounds can inhibit tumor growth in vivo. Nude Balb/c mice were inoculated with NCI-H1048 cells in Matrigel. Tumors were allowed to grow up to about 200 mm^3 and mice were then randomized into two groups. Mice were dosed intraperitoneally (i.p.) once per week with vehicle or 30 mg/kg compound 22. Tumor size was measured every three to four days and mice were sacrificed once vehicle tumors reached 2000 mm^3. Error bar is SEM. Dosing started at day 17 post tumor inoculation. (B): Provided technologies can reduce KAT2A and KAT2B levels and histone acetylation levels. […] Vehicle is DMSO. […] Cell count data relative to DMSO control after 8 days of treatment with compound 22 are presented as examples to confirm inhibition. GI50=6 nM. (D): Provided technologies can inhibit tumor growth in vivo. Nude balb/c mice inoculated with H1048 tumors were dosed intraperitoneally once per week (qw i.p.) with vehicle (HbCD) or compound 22. Average tumor volumes+/−SEM from 6 mice are represented. […] See also (A). […] Certain body weights relative to starting weight are presented as examples to confirm tolerability and safety. (F): Provided technologies can reduce KAT2A and KAT2B levels and histone acetylation levels in tumor in vivo. […]

KAT2B [3] = target: T1, KAT2B; assay: Western blot of KAT2B level in NEPC primary patient organoid, 72 hours; assay type: cell-based; set-up: degrader, Western blot; settings: FIG. 3 (D)
Procedure: FIG. 3. Provided compounds can provide various activities. (A): Provided technologies can reduce KAT2A and KAT2B levels and histone acetylation levels. […] Cell viability (Cell Titer Glo) data relative to DMSO control after 7 days of treatment with compound 22 are presented as examples to confirm inhibition. GI50=5 nM. (C): Provided technologies can modulate cell states and induce differentiation. […] (D): Provided technologies can reduce KAT2A and KAT2B levels and histone acetylation levels including in neuroendocrine prostate cancer primary patient organoid. […] Concentrations are nM. […] Cell viability data relative to DMSO control after 21 days of treatment with compound 22 are presented as examples to confirm inhibition. GI50=3 nM. (F): Provided technologies can modulate cell states and induce differentiation.

histone acetylation [4] = assay: Western blot of histone acetylation in NCI-H1048 cells, 24 h; assay type: cell-based; settings: various concentrations, FIG. 1 (B)
Procedure: as §1

MOLM-13 cells = assay: Cell growth inhibition (cell count, 8 days), MOLM-13 cells; assay type: cell-based; settings: Homo sapiens, 192 h, cell count after 8 days relative to DMSO control, FIG. 2 (B)
Procedure: FIG. 2. Provided compounds can provide various activities. (A): Provided technologies can reduce KAT2A and KAT2B levels and histone acetylation levels. […] Cell count data after 8 days of treatment with compound 22 relative to DMSO control are presented as examples to confirm inhibition. […] (C): Provided technologies can modulate cell states and induce differentiation. […] EC50=0.3 nM.

T1 sequence (Q92831 whole entry): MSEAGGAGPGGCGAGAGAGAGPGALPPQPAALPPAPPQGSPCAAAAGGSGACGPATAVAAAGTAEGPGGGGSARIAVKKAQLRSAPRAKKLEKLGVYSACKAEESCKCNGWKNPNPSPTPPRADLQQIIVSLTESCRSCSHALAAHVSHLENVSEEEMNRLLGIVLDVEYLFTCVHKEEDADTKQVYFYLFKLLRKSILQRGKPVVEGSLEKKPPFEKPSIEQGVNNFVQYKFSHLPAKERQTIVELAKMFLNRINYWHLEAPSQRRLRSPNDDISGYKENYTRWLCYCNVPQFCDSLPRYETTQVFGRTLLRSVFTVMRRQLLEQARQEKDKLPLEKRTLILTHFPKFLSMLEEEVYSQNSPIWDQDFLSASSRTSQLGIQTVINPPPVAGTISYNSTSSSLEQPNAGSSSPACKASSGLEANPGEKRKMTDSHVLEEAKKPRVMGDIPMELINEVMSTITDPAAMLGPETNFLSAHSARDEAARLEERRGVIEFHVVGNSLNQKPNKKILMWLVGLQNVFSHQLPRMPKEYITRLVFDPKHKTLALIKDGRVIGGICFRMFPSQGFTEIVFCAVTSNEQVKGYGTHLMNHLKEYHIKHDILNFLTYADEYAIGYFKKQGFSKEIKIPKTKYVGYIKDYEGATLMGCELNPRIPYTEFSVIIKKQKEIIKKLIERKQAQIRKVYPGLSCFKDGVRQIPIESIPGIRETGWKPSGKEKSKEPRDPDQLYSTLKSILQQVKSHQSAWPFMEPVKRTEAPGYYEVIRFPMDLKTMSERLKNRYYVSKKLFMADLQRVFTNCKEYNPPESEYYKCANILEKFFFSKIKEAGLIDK

CN1C[C@H](Nc2cnn(C)c(=O)c2Br)C[C@H](c2ccc(C(=O)N3CCC(CN4CCN(c5ccc6c(c5)CN(C5CCC(=O)NC5=O)C6=O)CC4)CC3)cc2)C1 (stereo partly drawn) [Compound 22, 3-(5-(4-((1-(4-((3R,5R)-5-((5-bromo-1-methyl-6-oxo-1,6-dihydropyridazin-4-yl)amino)-1-methylpiperidin-3-yl)benzoyl)piperidin-4-yl)methyl)piperazin-1-yl)-1-oxoisoindolin-2-yl)piperidine-2,6-dione]
GI50 (NCI-H1876 cells): 1 nM
EC90 (KAT2B [1]; 24 h, MOLM-13, KAT2B, read-out: DC90 (the source's name)): 3.6 nM
DC50 (KAT2B [1]; MOLM-13, KAT2B): 0.43 nM
KAT2B levels (KAT2B [1]; MOLM-13 cells, FIG. 2): potently reduce KAT2A and KAT2B levels
reduction of histone acetylation in tumor (histone acetylation [2]): significant reduction
reduction of KAT2B level (KAT2B [3]): confirmed such reductions
reduction of histone acetylation level (histone acetylation [4]): confirm such reduction
GI50 (MOLM-13 cells): 1.2 nM
